# Reference: US20130190365A1, “Use of Deferiprone and Methods to Treat and/or Prevent Friedreich Ataxia Resulting from Intracellular Mishandling of Iron” (priority 2006, published 2013)
# Columns and labels:
# [1] = Perdue Pegboard test in Friedreich ataxia patients; format: in vivo, human; details: for Perdue pegboard (number of nails inserted with the two hands alone+together): after trial
# Text: (§1) The International Cooperative Ataxia Rating Score (ICARS) was used to assess the symptoms of ataxia before and after 1-5 months (Cano et al. International cooperative ataxia rating scale (ICARS): Appropriate for studies of Friedreich's ataxia? Mov Disord 2005; 20:1585-91). This scale has four subscales: posture and gait disturbance, kinetic functions, speech disorders and oculomotor disorders. Subscale scores are summed to give a total score ranging from 0 to 100. High scores indicated worse ataxia. The Perdue Pegboard test, which assesses speed of performance, delicate movements and manipulative dexterity, was included in the course of the study. This test assesses the ability of the participant to insert as many nails as possible into preset holes, linearly dug in a wooden board in a limited space of time (20 seconds with the two hands, separately and together). The tests were administered by the same investigator. Patients were monitored for neutropenia, agranulocytosis, musculoskeletal pains and zinc deficiency and had weekly blood counts, plasma iron, serum ferritin and transferrin concentration measurements, as well as assessments of renal and liver function.
# [2] = 52-week twice daily oral toxicity study in non-iron-loaded cynomolgus monkeys; format: in vivo
# Protocol: As part of a larger study on the potential toxicity of iron chelators, we evaluated the toxicity of deferiprone in normal monkeys receiving 150 mg/kg/day (75 mg/kg twice daily) for 1 year.
# To determine the toxicity of deferiprone in non-iron-loaded cynomolgus monkeys following twice daily oral (gavage) administration for 52 consecutive weeks, and to evaluate the regression of any toxic effect during a 4-week treatment-free period.
# (§2) Groups of 4 male and 4 female monkeys (2 to 3 years old) were dosed by nasogastric intubation at (0.5% w/v aqueous carboxymethylcellulose vehicle) 75 mg/kg deferiprone twice daily (bid), with 6-8 hours between doses, for at least 364 days.
# (§3) Clinical signs, body weights and food intake were assessed at frequent intervals. Ophthalmological and cardiovascular examinations were carried out in Weeks 17, 30, 43, 56 and 60. Hematology, coagulation, clinical chemistry and urine parameters were measured at baseline and in Weeks 8, 16, 30, 41, 56 and 60. Blood samples were taken on the first day of dosing, and in Weeks 17 and 56 for assessment of the serum deferiprone time-concentration profile. A full necropsy was performed on each animal, selected organs weighed, and histopathological examination of abnormalities and selected tissues conducted.
# [3] = serum deferiprone time-concentration profile (HPLC) in the 52-week monkey study; format: in vivo, cynomolgus monkeys; details: monkeys, 75 mg/kg twice daily oral
# Protocol: as §2, §3
# Deferiprone was detectable (HPLC) from 0.5 h after dosing, and for up to 7 h.
# intracellular iron pools = details: macrophages, hepatocytes and cardiomyocyte cell lines; cited from earlier work
# [4] = International Cooperative Ataxia Rating Score (ICARS), phase I-II open trial in Friedreich ataxia patients; format: in vivo, human; details: for ICARS oculomotor disorder (/6) / ICARS posture and gait disturbance: gait speed / ICARS posture and gait disturbance: spread feet / ICARS speech disorder (/8) / ICARS posture and gait disturbance: standing eyes open / ICARS posture and gait disturbance: walking / ICARS kinetic function (/29) / ICARS posture and gait disturbance 7 items (/34): after trial
# Text: Ten adolescents (four males, six females aged 14 to 23 yrs) with a diagnosis of Friedreich ataxia, confirmed by detection of a trinucleotide-repeat expansion in the first intron of the frataxin gene, were studied. Patients received deferiprone (Ferriprox™, Apotex Inc., Toronto, Canada) orally, in two doses for 1-5 months. Three patients were included, sequentially, for a minimum period of two months at each dose. Patient enrollment was staggered by two-weeks to enable monitoring of response. In the absence of toxicity, and with evidence of efficacy in any of the first 3 patients, a second group of 3 patients would be included at the same dose for a total duration of 6 months. If there was an absence of both efficacy and toxicity, the second group of three patients would be administered a higher dose. If toxicity developed, the current dose would be suspended and the trial resumed with the next group of patients at a lower dose. The patients were on idebenone (10 mg/kg/day, in three doses) for at least two years prior to inclusion and were kept on the drug at the same dose for the duration of the trial. MRI examinations were done at inclusion and at 1, 2, 4 and 6 months. The protocol was promoted by Assistance Publique-Hopitaux de Paris and approved by the local ethical committee and registered at the National Health Authority (AFSSAPS) and at the International Protocol Registration System (www.clinicaltrials.gov). A written informed consent was obtained from patients and parents.
# as §1
# [5] = patient eight, DFP 20 mg/kg, 3 mth, prior to trial 4
# [6] = patient five, DFP 20 mg/kg, 5 mth, prior to trial 3
# [7] = patient one, DFP 20 mg/kg, 4 mth, prior to trial 2
# [8] = patient one, DFP 20 mg/kg, 4 mth, prior to trial 3
# [9] = patient seven, DFP 20 mg/kg, 2 mth, prior to trial 2
# [10] = patient seven, DFP 20 mg/kg, 2 mth, prior to trial 3
# [11] = patient six, DFP 20 mg/kg, 2 mth, prior to trial 3
# [12] = patient three, DFP 30 mg/kg, 1 mth, prior to trial 2
# [13] = patient two, DFP 30 mg/kg, 1 mth, prior to trial 0
smiles,measurement,setting,value
"Cc1c(O)c(=O)ccn1C [deferiprone, 3-hydroxy-1,2-dimethylpyridin-4-one]",speed of performances and dexterity (Perdue Pegboard),"[1]; 30 mg/kg/day group, before and 1-2 months after onset of the trial",an improvement of speed of performances and dexterity
same,Perdue pegboard (number of nails inserted with the two hands alone+together),"[1]; patient seven, DFP 20 mg/kg, 2 mth, prior to trial 37",29
same,Perdue pegboard (number of nails inserted with the two hands alone+together),"[1]; patient six, DFP 20 mg/kg, 2 mth, prior to trial 37",44
same,Perdue pegboard (number of nails inserted with the two hands alone+together),"[1]; patient two, DFP 30 mg/kg, 1 mth, prior to trial 52",39
same,"deferiprone-related effects on body weight, food intake, ophthalmology, cardiac conduction, blood pressure, heart rate, hematology or urine composition","[2]; 75 mg/kg twice daily, 52 weeks",no deferiprone-related effects
same,macroscopic findings at necropsy,"[2]; 75 mg/kg twice daily, 52 weeks",No macroscopic findings related to deferiprone were found
same,microscopic findings (histopathology),"[2]; 75 mg/kg twice daily, 52 weeks",No microscopic findings in non-iron-loaded monkeys could be attributed to treatment with deferiprone
same,overall adverse effect,"[2]; oral, 75 mg/kg twice daily for 52 weeks",without significant adverse effect
same,peak concentration relative to thalassemia patients on 25 mg/kg three times daily,[3],about three times
same,access to intracellular iron pools and chelation in cells,intracellular iron pools,readily enter most cells and efficiently reach the major intracellular sites of iron accumulation
same,change of ICARS scores,"[4]; 20 mg/kg/day, short period of the trial",mild changes of the ICARS scores
same,ICARS oculomotor disorder (/6),"[4]; patient eight, DFP 20 mg/kg, 3 mth, prior to trial 3",2
same,ICARS posture and gait disturbance: gait speed,[4]; [5],4
same,ICARS posture and gait disturbance: spread feet,[4]; [5],4
same,ICARS speech disorder (/8),[4]; [5],4
same,ICARS posture and gait disturbance: standing eyes open,"[4]; patient eight, DFP 20 mg/kg, 3 mth, prior to trial 6",6
same,ICARS posture and gait disturbance: walking,"[4]; patient eight, DFP 20 mg/kg, 3 mth, prior to trial 7",7
same,ICARS kinetic function (/29),"[4]; patient eight, DFP 20 mg/kg, 3 mth, prior to trial 21",21
same,ICARS posture and gait disturbance 7 items (/34),"[4]; patient eight, DFP 20 mg/kg, 3 mth, prior to trial 33",32
same,ICARS speech disorder (/8),"[4]; patient five, DFP 20 mg/kg, 5 mth, prior to trial 1",0
same,ICARS oculomotor disorder (/6),"[4]; patient five, DFP 20 mg/kg, 5 mth, prior to trial 2",2
same,ICARS posture and gait disturbance: gait speed,[4]; [6],3
same,ICARS posture and gait disturbance: spread feet,[4]; [6],2
same,ICARS posture and gait disturbance: standing eyes open,"[4]; patient five, DFP 20 mg/kg, 5 mth, prior to trial 4",4
same,ICARS posture and gait disturbance: walking,"[4]; patient five, DFP 20 mg/kg, 5 mth, prior to trial 7",7
same,ICARS kinetic function (/29),"[4]; patient five, DFP 20 mg/kg, 5 mth, prior to trial 8",7
same,ICARS posture and gait disturbance 7 items (/34),"[4]; patient five, DFP 20 mg/kg, 5 mth, prior to trial 28",27
same,ICARS posture and gait disturbance: gait speed,"[4]; patient one, DFP 20 mg/kg, 4 mth, prior to trial 1",1
same,ICARS oculomotor disorder (/6),[4]; [7],2
same,ICARS posture and gait disturbance: standing eyes open,[4]; [7],1
same,ICARS speech disorder (/8),[4]; [7],2
same,ICARS posture and gait disturbance: spread feet,[4]; [8],3
same,ICARS posture and gait disturbance: walking,[4]; [8],2
same,ICARS kinetic function (/29),"[4]; patient one, DFP 20 mg/kg, 4 mth, prior to trial 7",7
same,ICARS posture and gait disturbance 7 items (/34),"[4]; patient one, DFP 20 mg/kg, 4 mth, prior to trial 12",9
same,ICARS oculomotor disorder (/6),"[4]; patient seven, DFP 20 mg/kg, 2 mth, prior to trial 0",0
same,ICARS posture and gait disturbance: gait speed,"[4]; patient seven, DFP 20 mg/kg, 2 mth, prior to trial 1",1
same,ICARS posture and gait disturbance: spread feet,[4]; [9],2
same,ICARS speech disorder (/8),[4]; [9],2
same,ICARS posture and gait disturbance: standing eyes open,[4]; [10],1
same,ICARS posture and gait disturbance: walking,[4]; [10],3
same,ICARS kinetic function (/29),"[4]; patient seven, DFP 20 mg/kg, 2 mth, prior to trial 13",12
same,ICARS posture and gait disturbance 7 items (/34),"[4]; patient seven, DFP 20 mg/kg, 2 mth, prior to trial 16",13
same,ICARS oculomotor disorder (/6),"[4]; patient six, DFP 20 mg/kg, 2 mth, prior to trial 0",0
same,ICARS posture and gait disturbance: gait speed,"[4]; patient six, DFP 20 mg/kg, 2 mth, prior to trial 2",2
same,ICARS posture and gait disturbance: spread feet,[4]; [11],3
same,ICARS speech disorder (/8),[4]; [11],2
same,ICARS posture and gait disturbance: standing eyes open,"[4]; patient six, DFP 20 mg/kg, 2 mth, prior to trial 5",4
same,ICARS posture and gait disturbance: walking,"[4]; patient six, DFP 20 mg/kg, 2 mth, prior to trial 7",7
same,ICARS kinetic function (/29),"[4]; patient six, DFP 20 mg/kg, 2 mth, prior to trial 11",11
same,ICARS posture and gait disturbance 7 items (/34),"[4]; patient six, DFP 20 mg/kg, 2 mth, prior to trial 17",16
same,ICARS posture and gait disturbance: spread feet,"[4]; patient three, DFP 30 mg/kg, 1 mth, prior to trial 1",0
same,ICARS oculomotor disorder (/6),[4]; [12],2
same,ICARS posture and gait disturbance: gait speed,[4]; [12],2
same,ICARS posture and gait disturbance: standing eyes open,[4]; [12],1
same,ICARS posture and gait disturbance: walking,[4]; [12],2
same,ICARS speech disorder (/8),[4]; [12],2
same,ICARS kinetic function (/29),"[4]; patient three, DFP 30 mg/kg, 1 mth, prior to trial 8",8
same,ICARS posture and gait disturbance 7 items (/34),"[4]; patient three, DFP 30 mg/kg, 1 mth, prior to trial 11",8
same,ICARS oculomotor disorder (/6),[4]; [13],0
same,ICARS speech disorder (/8),[4]; [13],0
same,ICARS posture and gait disturbance: gait speed,"[4]; patient two, DFP 30 mg/kg, 1 mth, prior to trial 1",1
same,ICARS posture and gait disturbance: spread feet,"[4]; patient two, DFP 30 mg/kg, 1 mth, prior to trial 2",2
same,ICARS posture and gait disturbance: standing eyes open,"[4]; patient two, DFP 30 mg/kg, 1 mth, prior to trial 3",2
same,ICARS posture and gait disturbance: walking,"[4]; patient two, DFP 30 mg/kg, 1 mth, prior to trial 7",7
same,ICARS kinetic function (/29),"[4]; patient two, DFP 30 mg/kg, 1 mth, prior to trial 9",9
same,ICARS posture and gait disturbance 7 items (/34),"[4]; patient two, DFP 30 mg/kg, 1 mth, prior to trial 20",17
CC(=O)N(O)CCCCCNC(=O)CCC(=O)N(O)CCCCCNC(=O)CCC(=O)N(O)CCCCCN [desferrioxamine],access to intracellular iron pools and chelation in cells,intracellular iron pools,slow
